Results: patent US6703362B1, “Random peptides that bind to gastro-intestinal tract (GIT) transport receptors and related methods” (Cytogen Corporation, priority 1997, dated 2004)

Tests used:
HPT1 = molecular target: T1, HPT1 (Homo sapiens, UniProt Q12864); assay: Phage receptor ELISA on HPT1; assay type: binding; details: Table 5
T1 construct: 29-273; made in house
T1 sequence (Q12864 29-273): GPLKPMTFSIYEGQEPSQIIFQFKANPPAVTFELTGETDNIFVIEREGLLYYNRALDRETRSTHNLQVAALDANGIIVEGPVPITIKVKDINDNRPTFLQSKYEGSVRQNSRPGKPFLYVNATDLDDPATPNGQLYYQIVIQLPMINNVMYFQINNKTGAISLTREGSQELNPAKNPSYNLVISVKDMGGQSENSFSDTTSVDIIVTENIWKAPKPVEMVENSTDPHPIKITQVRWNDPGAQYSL
Procedure: (§1) 96 well plates were coated overnight with GIT receptor, BSA and, optionally, IDE (insulin degrading enzyme, an irrelevant His-fusion protein)or hTF. The plates were 5 blocked for one hour with 0.5% BSA-PBS. After clarification, the amplified phage were diluted 1:100 in […] plus 0.05% Tween 20 in PBS and added to the plates. Following incubation of the plates on a rotator for 1 to 2 hours, the plates were washed 5 times with 1% BSA plus 0.05% Tween 20 in PBS. Dilute anti-M13-HRP conjugate (anti-M13 antibody linked to horse radish peroxidase (HRP)) was added to all the wells and the plate was incubated for one hour on a rotator. After the plates were washed 5 times, as described above, TMB substrate was added to the wells. The plates were read at 650 nm absorbance.

BSA = BSA (Bos taurus, UniProt P02769); assay: Phage ELISA on BSA (background control protein); assay type: binding; details: Table 5
Sequence of BSA (P02769 25-607): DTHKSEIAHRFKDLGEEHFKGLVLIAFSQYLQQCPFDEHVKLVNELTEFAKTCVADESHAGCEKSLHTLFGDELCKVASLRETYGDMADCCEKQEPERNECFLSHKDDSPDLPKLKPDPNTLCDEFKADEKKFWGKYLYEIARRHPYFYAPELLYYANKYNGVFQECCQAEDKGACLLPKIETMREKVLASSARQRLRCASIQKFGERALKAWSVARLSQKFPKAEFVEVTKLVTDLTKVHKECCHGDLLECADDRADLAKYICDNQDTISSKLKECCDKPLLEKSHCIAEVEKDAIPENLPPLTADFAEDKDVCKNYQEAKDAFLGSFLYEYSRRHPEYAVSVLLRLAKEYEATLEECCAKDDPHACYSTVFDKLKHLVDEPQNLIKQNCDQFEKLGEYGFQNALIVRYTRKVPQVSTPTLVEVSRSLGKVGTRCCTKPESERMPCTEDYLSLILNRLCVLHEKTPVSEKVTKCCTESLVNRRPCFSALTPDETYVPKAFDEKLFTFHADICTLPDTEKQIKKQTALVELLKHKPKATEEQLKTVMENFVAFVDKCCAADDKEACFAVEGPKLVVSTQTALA
Procedure: as §1

[1] = Isoelectric points of synthetic peptides; assay type: physicochemical

OD, binding to HPT1 (HPT1; phage panned on HPT-1): 0.32 | HPT/BSA (HPT1; ratio of HPT-1 to BSA binding): 5 | OD, binding to BSA (BSA): 0.071 | pI [1]: 9.62
Sequence: SDHALGTNLRSDNAKEPGDYNCCGNGNSTGRKVFNRRRPSAIPT [HAX42]
